Measurements reported in US8372412B2, “Bioassay and peptides for use therein” (Rapid Biosensor Systems Limited, priority 2005, dated 2013).
“Also recorded” adds a separate entry of the source.

Columns and labels:
[1] = test system: antisera (from rabbit) to the p3 18-mer (SEQ ID 11); assay: Targeted Epitope ELISA (competitive ELISA against plate-coated p3 18-mer P779); type: binding; settings: for binding to the antisera relative to the p3 18-mer: competitive ELISA as before, 6-mers and re-tested 9-mer P782-10
Description: (§1) These peptides, along with the p3 18-mer (SEQ ID 11) were screened against antisera (from rabbit) to the p3 18-mer (SEQ ID 11). The screen utilized the competitive ELISA (Enzyme-linked immunosorbant assay) technique, which was used to assess the relative binding affinities of the 9-mer peptides to the 18-mer peptide.
(§2) Briefly, the assay involved binding (coating) the p3 18-mer (P779, SEQ ID 11) to ELISA plates, followed by incubation with variables amounts of competing ligand (9-mers, SEQ ID 1-10) with the antisera (1:250 dilution). The level of binding of the antisera to p3 18-mer (P779, SEQ ID 11) was indicated by treatment with goat anti-rabbit peroxidase conjugated antibody and then by addition of a chromogenic substrate ABTS (2,2-azino-di-[3-ethylbenzthiazoline sulphonate]) and hydrogen peroxide where upon a green colour developed which was recorded as an optical density (absorbance) on a plate reader. The colour development is proportional to the level of binding of the primary antisera bound to the plate.
A test ELISA was performed in order to ascertain the concentrations of coating peptide and competing peptides for the ELISA experiments, comprising a competitive ELISA of 9-mer P782-1 ([…])—SEQ ID 1—against 18-mer P779 ([…])—SEQ ID 11 (Mustafa, A. S. et al, supra). This 9-mer was chosen as it also overlaps with the p2 18-mer ([…])—SEQ ID 12. […] ELISA plates were coated with 2 μM solution of p3 18-mer (P779)—SEQ ID 11—and used 500 μM solutions of competing peptides, which were then subjected to four-fold serial dilution.
A Targeted Epitope ELISA was then designed to test the importance of the C-terminal region of the epitope on binding to the antisera. Two 6-mers were synthesized, P782-11 (GNNSPA)—SEQ ID 13—and P782-12 (NNSPAV)—SEQ ID 14, which are truncated forms of their respective 9-mers and subjected these to competitive ELISA as before and also re-tested the 9-mer P782-10 (SEQ ID 10) identified as a significant epitope in the Epitope Mapping ELISA.

[2] = test system: antisera (from rabbit) to the p3 18-mer (SEQ ID 11); assay: Epitope Mapping ELISA (competitive ELISA against plate-coated p3 18-mer P779); type: binding; settings: plates coated with 2 μM P779, competing peptides 500 μM, four-fold serial dilution, antisera 1:250
Description: as §1, §2
A test ELISA was performed in order to ascertain the concentrations of coating peptide and competing peptides for the ELISA experiments, comprising a competitive ELISA of 9-mer P782-1 ([…])—SEQ ID 1—against 18-mer P779 ([…])—SEQ ID 11 (Mustafa, A. S. et al, supra). This 9-mer was chosen as it also overlaps with the p2 18-mer ([…])—SEQ ID 12. […]

[3] = Heat stability of peptide variants; type: physicochemical; settings: C-terminal variants of SGGNNSPA-X; no method or data given

GNNSPA (listed as Mycobacterium tuberculosis) [P782-11]
binding to the antisera relative to the p3 18-mer [1]: did not bind to the antisera

NNSPAV (listed as Mycobacterium tuberculosis) [P782-12]
binds to the antisera less tightly relative to either 9-mer P782-10 or 18-mer P779 ([1]; competitive ELISA, relative binding affinity): 1.99 fold

QSGGNNSPA (listed as Mycobacterium tuberculosis) [P782-9]
binding to the antisera relative to the p3 18-mer [2]: no significant binding

SGGNNSPAA (Modification (at position 9) of native Mycobacterium tuberculosis sequence) [SEQ ID 15]
heat stability [3]: particularly good Leu-heat stability; also recorded: increased heat stability

SGGNNSPAV (listed as Mycobacterium tuberculosis) [P782-10]
binding to the antisera relative to the p3 18-mer [1]: bound to the antisera as tightly as the p3 18-mer peptide P779
binding to the antisera relative to the p3 18-mer [2]: bound to the antisera as tightly as the p3 18-mer peptide
